tested on: LoVo (CCL-229) cells; experiment: Tumor cell anti-proliferation assay (CTG assay); assay type: cell-based; details: LoVo human colorectal cancer cells, 96 h, CellTiter-Glo
Description: Assay 2: Tumor Cell Anti-proliferation Assay (CTG Assay)
Human colorectal cancer cells HT-29 (HTB-38) and LoVo (CCL-229) were selected for the CTG assay, the two cell lines were originally obtained from the American Type Culture Collection (ATCC). FBS and appropriate additives were added into base medium to prepare complete medium, then the cell layer was briefly rinsed with 0.25% (w/v) Trypsin-0.038% (w/v) EDTA solution to remove all traces of serum that contains trypsin inhibitor. After that, appropriate volume of Trypsin-EDTA solution was added to flask and cells under an inverted microscope were observed until cell layer was dispersed. At last, appropriate volume of complete growth medium was added and cells were aspirated by gently pipetting. Numbers were collected and counted with Vi-cell XR and cell density was adjusted, cells were seeded into 96-well opaque-walled clear bottom tissue-culture treated plates in the CO2 incubator for 20-24 hours. All the test compounds were at 10 mM in DMSO. Compounds were then added to the cell media in 3-fold serial dilutions, the final DMSO concentration was 0.5%. Plates were incubated for 96 h at 5% CO2, 37° C. Before the measurement, the appropriate volume of CellTiter-Glo Buffer was transferred into the amber bottle containing CellTiter-Glo substrate to reconstitute the lyophilized enzyme/substrate mixture, mixed gently, thereby forming the CellTiter-Glo Reagent (Promega Cat. No. G7573). The plate and its contents were equilibrated to room temperature for approximately 30 minutes, then 100 μL of CellTiter-Glo Reagent was added to the assay plate, the contents were mixed for 2 minutes on an orbital shaker to induce cell lysis, incubated at room temperature for 10 minutes to stabilize luminescent signal. At last the clear bottom was pasted with white back seal and luminescence was recorded with Enspire. IC50 and GI50 values were calculated with XLFit curve fitting software using 4 Parameter Logistic Model Y=Bottom+(Top−Bottom)/(1+(IC50/X)^HillSlope).

SMILES	IC50 [nM]
Cc1cc(-c2nsc3c(C(C)(C)O)cc(N4CCOC[C@H]4C)nc23)[nH]n1 [Example 67, (R)-2-(3-(3-methyl-1H-pyrazol-5-yl)-5-(3-methylmorpholino)isothiazolo[4,5-b]pyridin-7-yl)propan-2-ol]	5
Cc1cc(-c2ncc3c(C(C)(C)S(C)(=O)=O)cc(N4CCOC[C@H]4C)nn23)[nH]n1 [Example 42, (R)-3-methyl-4-(7-(3-methyl-1H-pyrazol-5-yl)-4-(2-(methylsulfonyl)propan-2-yl)imidazo[1,5-b]pyridazin-2-yl)morpholine]	79.3
Cc1cc(-c2nsc3c(-c4cnnn4C)cc(N4CCOC[C@H]4C)nc23)[nH]n1 [Example 68, (R)-3-methyl-4-(7-(1-methyl-1H-1,2,3-triazol-5-yl)-3-(3-methyl-1H-pyrazol-5-yl)isothiazolo[4,5-b]pyridin-5-yl)morpholine]	16
C[C@@H]1COCCN1c1cc(C(C)(C)S(C)(=O)=O)c2cnc(-c3ccn[nH]3)n2n1 [Example 41, (3R)-4-[4-(2-methanesulfonylpropan-2-yl)-7-(1H-pyrazol-5-yl)imidazo[1,5-b]pyridazin-2-yl]-3-methylmorpholine]	86.6
Cc1nc(-c2ccn[nH]2)n2nc(N3CCOC[C@H]3C)cc(-c3ccnn3C)c12 [Example 36, (R)-3-methyl-4-(5-methyl-4-(1-methyl-1H-pyrazol-5-yl)-7-(1H-pyrazol-5-yl)imidazo[1,5-b]pyridazin-2-yl)morpholine]	17.8
Cc1cc(-c2cnc3c(-c4ccnn4C)cc(N4CCOC[C@H]4C)nn23)[nH]n1 [Example 23, (R)-3-methyl-4-(8-(1-methyl-1H-pyrazol-5-yl)-3-(3-methyl-1H-pyrazol-5-yl)imidazo[1,2-b]pyridazin-6-yl)morpholine]	446
Cc1nnn(C)c1-c1cc(N2CCOC[C@H]2C)nn2c(-c3ccn[nH]3)nc(C)c12 [Example 45, (3R)-4-[4-(dimethyl-1H-1,2,3-triazol-5-yl)-5-methyl-7-(1H-pyrazol-5-yl)imidazo[1,5-b]pyridazin-2-yl]-3-methylmorpholine]	81.7
C[C@@H]1COCCN1c1cc(-c2ccnn2C)c2c(Cl)nc(-c3ccn[nH]3)n2n1 [Example 61, (3R)-4-[5-chloro-4-(1-methyl-1H-pyrazol-5-yl)-7-(1H-pyrazol-5-yl)imidazo[1,5-b]pyridazin-2-yl]-3-methylmorpholine]	26.5
Cc1cc(-c2nsc3c(C(C)(C)C#N)cc(N4CCOC[C@H]4C)nc23)[nH]n1 [Example 54, (R)-2-methyl-2-(3-(3-methyl-1H-pyrazol-5-yl)-5-(3-methylmorpholino)isothiazolo[4,5-b]pyridin-7-yl)propanenitrile]	66.7
Cc1cc(-c2nc(C)c3c(-c4c(C)nnn4C)cc(N4CCOC[C@H]4C)nn23)[nH]n1 [Example 46, (3R)-4-[4-(dimethyl-1H-1,2,3-triazol-5-yl)-5-methyl-7-(3-methyl-1H-pyrazol-5-yl)imidazo[1,5-b]pyridazin-2-yl]-3-methylmorpholine]	51.2
C[C@@H]1COCCN1c1cc(C2(C#N)CCCC2)c2cnc(-c3ccn[nH]3)n2n1 [Example 59, 1-{2-[(3R)-3-methylmorpholin-4-yl]-7-(1H-pyrazol-5-yl)imidazo[1,5-b]pyridazin-4-yl}cyclopentane-1-carbonitrile]	28.1
C[C@@H]1COCCN1c1cc(-c2ccnn2C)n2ccc(-c3ccn[nH]3)c2n1 [Example 28, (R)-3-methyl-4-(4-(1-methyl-1H-pyrazol-5-yl)-8-(1H-pyrazol-5-yl)pyrrolo[1,2-a]pyrimidin-2-yl)morpholine]	471
Cc1noc(C)c1-c1cc(N2CCOC[C@H]2C)nc2c(-c3ccn[nH]3)nsc12 [Example 72, (R)-4-(7-(3,5-dimethylisoxazol-4-yl)-3-(1H-pyrazol-5-yl)isothiazolo[4,5-b]pyridin-5-yl)-3-methylmorpholine]	101
C[C@@H]1COCCN1c1cc(C2(S(C)(=O)=O)CC2)nc(Nc2cc(Cl)n[nH]2)n1 [Example 77, (R)—N-(3-chloro-1H-pyrazol-5-yl)-4-(3-methylmorpholino)-6-(1-(methylsulfonyl)cyclopropyl)pyrimidin-2-amine]	1000
Cc1cc(-c2nsc3c(-c4c(C)cnn4C)cc(N4CCOC[C@H]4C)nc23)[nH]n1 [Example 71, (R)-4-(7-(1,4-dimethyl-1H-pyrazol-5-yl)-3-(3-methyl-1H-pyrazol-5-yl)isothiazolo[4,5-b]pyridin-5-yl)-3-methylmorpholine]	23
C[C@@H]1COCCN1c1cc(C2(C#N)CC2)c2cnc(-c3ccn[nH]3)n2n1 [Example 44, (R)-1-(2-(3-methylmorpholino)-7-(1H-pyrazol-5-yl)imidazo[1,5-b]pyridazin-4-yl)cyclopropane-1-carbonitrile]	43.9

Next, values leading:

IC50 [nM]	SMILES
12	Cc1cc(-c2nsc3c(C4(S(C)(=N)=O)CC4)cc(N4CCOC[C@H]4C)nc23)[nH]n1 (stereo partly drawn) [Example 94, imino(methyl)(1-(3-(3-methyl-1H-pyrazol-5-yl)-5-((R)-3-methylmorpholino)isothiazolo[4,5-b]pyridin-7-yl)cyclopropyl)-16-sulfanone]
94	COC(=O)C1(c2cc(N3CCOC[C@H]3C)nc3c(-c4ccn[nH]4)nsc23)CCCC1 [Example 92]
35	Cc1cc(-c2nsc3c(P(C)(C)=O)cc(N4CCOC[C@H]4C)nc23)n(C2CCCCO2)n1 (stereo partly drawn) [Example 108, dimethyl(3-(3-methyl-1-(tetrahydro-2H-pyran-2-yl)-1H-pyrazol-5-yl)-5-((R)-3-methylmorpholino)isothiazolo[4,5-b]pyridin-7-yl)phosphine oxide]
154	Cc1cc(-c2nsc3c(Cl)cc(N4CCOC[C@H]4C)nc23)[nH]n1 [Example 104, (R)-4-(7-chloro-3-(3-methyl-1H-pyrazol-5-yl)isothiazolo[4,5-b]pyridin-5-yl)-3-methylmorpholine]
32.7	Cc1cc(-c2nsc3c(-c4cccnc4C(F)(F)F)cc(N4CCOC[C@H]4C)nc23)[nH]n1 [Example 96, (3R)-3-methyl-4-[3-(3-methyl-1H-pyrazol-5-yl)-7-[2-(trifluoromethyl)pyridin-3-yl]-[1,2]thiazolo[4,5-b]pyridin-5-yl]morpholine]
26	Cc1cc(-c2nsc3c(-c4ncnn4C)cc(N4CCOC[C@H]4C)nc23)[nH]n1 [Example 102, (R)-3-methyl-4-(7-(1-methyl-1H-1,2,4-triazol-5-yl)-3-(3-methyl-1H-pyrazol-5-yl)isothiazolo[4,5-b]pyridin-5-yl)morpholine]
14	Cc1cc(-c2nsc3c(C4(CO)CC4)cc(N4CCOC[C@H]4C)nc23)[nH]n1 [Example 98, (R)-(1-(3-(3-methyl-1H-pyrazol-5-yl)-5-(3-methylmorpholino)isothiazolo[4,5-b]pyridin-7-yl)cyclopropyl)methanol]
9	Cc1cc(-c2nsc3c(C4(O)CCCCC4)cc(N4CCOC[C@H]4C)nc23)[nH]n1 [Example 86, (R)-1-(3-(3-methyl-1H-pyrazol-5-yl)-5-(3-methylmorpholino)isothiazolo[4,5-b]pyridin-7-yl)cyclohexan-1-ol]
15.5	C[C@@H]1COCCN1c1cc(-c2cccnc2C(F)(F)F)c2snc(-c3ccn[nH]3)c2n1 [Example 101, (3R)-3-methyl-4-[3-(1H-pyrazol-5-yl)-7-[2-(trifluoromethyl)pyridin-3-yl]-[1,2]thiazolo[4,5-b]pyridin-5-yl]morpholine]
36	Cc1cc(-c2nsc3c(-c4ccccc4S(C)(=O)=O)cc(N4CCOC[C@H]4C)nc23)[nH]n1 [Example 95, (3R)-4-[7-(2-methanesulfonylphenyl)-3-(3-methyl-1H-pyrazol-5-yl)-[1,2]thiazolo[4,5-b]pyridin-5-yl]-3-methylmorpholine]
1	Cc1cc(-c2nsc3c(C4(C(N)=O)CCCCC4)cc(N4CCOC[C@H]4C)nc23)[nH]n1 [Example 88, (R)-1-(3-(3-methyl-1H-pyrazol-5-yl)-5-(3-methylmorpholino)isothiazolo[4,5-b]pyridin-7-yl)cyclohexane-1-carboxamide]
246	Cc1cc(-c2ncc3c(-c4ccnn4C)cc(N4CC5CCC(C4)O5)nn23)[nH]n1 [Example 79, 3-[4-(1-methyl-1H-pyrazol-5-yl)-7-(3-methyl-1H-pyrazol-5-yl)imidazo[1,5-b]pyridazin-2-yl]-8-oxa-3-azabicyclo[3.2.1]octane]
152	Cn1nccc1-c1cc(N2CC3CCC(C2)O3)nn2c(-c3ccn[nH]3)ncc12 [Example 78, 3-[4-(1-methyl-1H-pyrazol-5-yl)-7-(1H-pyrazol-5-yl)imidazo[1,5-b]pyridazin-2-yl]-8-oxa-3-azabicyclo[3.2.1]octane]
10	Cc1cc(-c2nsc3c(C(C)(C)CO)cc(N4CCOC[C@H]4C)nc23)[nH]n1 [Example 97, (R)-2-methyl-2-(3-(3-methyl-1H-pyrazol-5-yl)-5-(3-methylmorpholino)isothiazolo[4,5-b]pyridin-7-yl)propan-1-ol]
